“Also recorded” adds a separate entry of the source.
Experiments:
[1] = tested on: NCI-H460 cells; assay: MTT assay, cell growth inhibition, NCI-H460; assay type: cell-based; conditions: Homo sapiens, 72 h, three independent experiments
Method: (§1) A series of 3-aryl-naphtho[2,3-d]isoxazole-4,9-diones were synthesized (Scheme 1, Figure 1) and their growth inhibition activity was tested in vitro on human non-small cell lung carcinoma NCI-H460, colorectal carcinoma DLD1 and their corresponding MDR cells (NCI-H460/R and DLD1-TxR, respectively), as well as normal embryonic lung fibroblasts MRC-5. The differences in cell growth inhibition between cancer and normal cells obtained by the MTT assay after 72 h treatment are presented in Table 1. The effect of compounds is presented as IC50 values that correspond to the 50% of cell growth inhibition.
(§2) Cell viability was assessed by the MTT assay (AppliChem GmbH, Darmstadt, Germany). Cells grown in 25 cm^2 tissue flasks were trypsinized and 1000 cells/well were seeded into flat-bottomed 96-well tissue culture plates and incubated overnight. Subsequently, the cells were treated with increasing concentrations of Hsp90 inhibitors for 72 h: compound 3 (0.1–2.5 µM), compound 4 (0.25–5 µM), compound 5 (0.5–25 µM), compound 6 (50–1000 nM), compound 7 (10–250 nM), compound 8 (0.25–5 µM), compound 9 (10–250 nM), compound 10 (0.5–25 µM), compound 13 (0.5–10 µM), compound 14 (1–25 µM), and compound 15 (10–250 nM). […] After treatment, MTT was added to each well in a final concentration of 0.2 mg/mL for 4 h. Formazan product was dissolved in 200 µl of DMSO, and the absorbance was measured at 540 nm using an automatic LKB 5060-006 Micro Plate Reader (Vienna, Austria). IC50 value was defined as a concentration of the drug that inhibited cell growth by 50% and was calculated by nonlinear regression analysis using GraphPad Prism 6.0 for Windows (La Jolla, CA, USA). Relative selectivity towards cancer cells was calculated as a relation between IC50 value obtained in MRC-5 cells and an average IC50 value from four tested cancer cell lines.

[2] = tested on: NCI-H460/R cells; assay: MTT assay, cell growth inhibition, NCI-H460/R (MDR); assay type: cell-based, human; conditions: for Efficacy in MDR NCI-H460/R cells compared with sensitive NCI-H460: 72 h; for IC50: Homo sapiens, NCI-H460, 72 h, MDR cells
Method: as §1
(§3) Human colorectal carcinoma (DLD1), non-small cell lung carcinoma (NCI-H460), and normal embryonic lung fibroblast (MRC-5) cell lines were purchased from the American Type Culture Collection, Rockville, MD. P-gp overexpressing multidrug resistant DLD1-TxR cells were selected by continuous exposure to stepwise increasing concentrations of paclitaxel from DLD1 cells, while NCI-H460/R cells were selected from NCI-H460 cells after DOX selective pressure. MDR cancer cell lines, DLD1-TxR and NCI-H460/R, and their sensitive counterparts were maintained in RPMI 1640 medium supplemented with 10% FBS, 2 mM L-glutamine, and 10,000 U/mL penicillin, 10 mg/mL streptomycin, 25 mg/mL amphotericin B solutions. MRC-5 cells were cultured in DMEM supplemented with 10% FBS, 4 g/L glucose, 2 mM L-glutamine and 5000 U/mL penicillin, 5 mg/mL streptomycin solution. All cell lines were sub-cultured at 72 h intervals using 0.25% trypsin/EDTA and seeded into a fresh medium at 8000 cells/cm^2. All cell lines were maintained at 37 °C in a humidified 5% CO2 atmosphere.
as §2

[3] = tested on: DLD1 cells; assay: MTT assay, cell growth inhibition, DLD1; assay type: cell-based; conditions: Homo sapiens, DLD-1, 72 h
Method: as §1, §2

[4] = tested on: DLD1-TxR cells; assay: MTT assay, cell growth inhibition, DLD1-TxR (MDR); assay type: cell-based, human; conditions: 72 h; for IC50: Homo sapiens, MDR cells
Method: as §1, §3, §2

[5] = tested on: MRC-5 cells; assay: MTT assay, normal embryonic lung fibroblasts MRC-5; assay type: cell-based, human; conditions: for IC50: Homo sapiens, MRC5, MTT, 72 h, normal fibroblasts, read-out: Cell growth inhibition IC50, MRC-5; for Relative Selectivity: IC50 in MRC-5 cells / average IC50 of four cancer cell lines
Method: as §1, §2

[6] = tested on: NCI-H460, NCI-H460/R, DLD1, DLD1-TxR cells; assay: MTT assay, grouping of inhibitors by IC50 over the cancer cell lines; assay type: cell-based; conditions: Homo sapiens, Figure 2b, read-out: IC50 values (grouping for Pearson correlation)
Method: When the IC50 values obtained by the MTT assay were compared to Hsp90 affinity binding IC50 values (Table 1), a positive Pearson correlation (r > 0.5) was found for all cancer cell lines (Figure 2b).
as §2

[7] = tested on: Hsp90; design: method as in PMID 22538015; conditions: read-out: Hsp90 Affinity binding; cited from earlier work
[8] = biological target: P-gp (Homo sapiens, UniProt P08183); assay: Rhodamine 123 accumulation assay (P-gp activity, flow cytometry); assay type: cell-based; design: P-gp overexpressing multidrug resistant DLD1-TxR cells were selected by continuous exposure to stepwise increasing concentrations of paclitaxel from DLD1 cells; endogenous in cells; host or cells: NCI-H460/R and DLD1-TxR (drug-selected MDR human cancer cells); conditions: MDR NCI-H460/R and DLD1-TxR cells, 30 min, one concentration per compound (100 nM-10 µM), Figure 3a
Chain of P-gp (P08183 whole entry): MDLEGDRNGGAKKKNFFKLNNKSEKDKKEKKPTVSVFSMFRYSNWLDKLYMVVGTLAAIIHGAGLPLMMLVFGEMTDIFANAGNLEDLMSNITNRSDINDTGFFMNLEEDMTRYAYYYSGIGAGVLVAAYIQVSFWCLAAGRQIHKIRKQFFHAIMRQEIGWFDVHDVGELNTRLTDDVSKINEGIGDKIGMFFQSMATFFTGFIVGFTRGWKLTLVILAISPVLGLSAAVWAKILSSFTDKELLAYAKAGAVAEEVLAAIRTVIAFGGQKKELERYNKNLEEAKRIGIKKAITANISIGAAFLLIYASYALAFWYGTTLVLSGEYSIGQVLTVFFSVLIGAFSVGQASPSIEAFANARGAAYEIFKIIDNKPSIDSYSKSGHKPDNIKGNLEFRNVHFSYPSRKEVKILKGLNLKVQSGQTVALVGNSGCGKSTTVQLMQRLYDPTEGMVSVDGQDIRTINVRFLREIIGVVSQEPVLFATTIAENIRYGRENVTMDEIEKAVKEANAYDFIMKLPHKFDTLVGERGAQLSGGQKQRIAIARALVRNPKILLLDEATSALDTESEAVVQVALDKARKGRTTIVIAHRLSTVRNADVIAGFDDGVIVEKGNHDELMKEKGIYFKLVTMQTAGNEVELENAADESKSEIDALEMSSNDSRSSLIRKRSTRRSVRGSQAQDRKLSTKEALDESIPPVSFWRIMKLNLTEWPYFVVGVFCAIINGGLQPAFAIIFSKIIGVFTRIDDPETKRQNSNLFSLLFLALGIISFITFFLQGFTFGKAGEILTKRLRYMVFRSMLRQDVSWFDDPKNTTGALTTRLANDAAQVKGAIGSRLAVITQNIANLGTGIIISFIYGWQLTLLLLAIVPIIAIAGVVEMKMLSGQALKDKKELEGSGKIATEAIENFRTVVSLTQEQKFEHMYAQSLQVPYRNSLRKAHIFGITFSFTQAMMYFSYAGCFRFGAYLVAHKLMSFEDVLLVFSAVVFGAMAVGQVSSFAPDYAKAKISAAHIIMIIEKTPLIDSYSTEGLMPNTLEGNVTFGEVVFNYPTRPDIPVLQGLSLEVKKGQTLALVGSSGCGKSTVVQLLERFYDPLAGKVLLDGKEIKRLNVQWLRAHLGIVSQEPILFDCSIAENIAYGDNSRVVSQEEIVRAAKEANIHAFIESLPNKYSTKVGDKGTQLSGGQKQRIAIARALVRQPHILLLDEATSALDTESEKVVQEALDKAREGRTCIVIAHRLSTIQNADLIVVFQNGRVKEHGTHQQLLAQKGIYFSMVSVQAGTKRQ
Method: To study the effect of Hsp90 inhibitors on P-gp activity in MDR cancer cells, intracellular accumulation of the P-gp substrate rhodamine 123 (Rho 123) was analyzed by flow cytometry after 30 min treatment (Figure 3a). A well-known inhibitor of P-gp activity, tariquidar (TQ), was included as a positive control.
The accumulation of Rho 123, a fluorescent P-gp substrate, was measured by flow cytometry. The intensity of the fluorescence is proportional to Rho 123 accumulation in the cell. All cell lines were seeded in adherent 6-well plates and grown overnight. DLD1-TxR and NCI-H460/R cells were treated for 30 min with the following concentrations of Hsp90 inhibitors: 500 nM compound 3, 1 µM compound 4, 10 µM compound 5, 500 nM compound 6, 500 nM compound 7, 1 µM compound 8, 500 nM compound 9, 1 µM compound 10, 1 µM compound 13, 10 µM compound 14, 100 nM compound 15. TQ (10 nM) was used as a positive control for Rho 123 accumulation. Rho 123 (5 μM) was simultaneously added with the investigated compounds and the cells were incubated at 37 °C in 5% CO2 for 30 min. The cells were then trypsinized, pelleted by centrifugation, washed with PBS and placed in ice-cold PBS. The samples were kept on ice in the dark until the analysis on CyFlow Space Partec flow cytometer (Sysmex Partec GmbH, Görlitz, Germany). The fluorescence of Rho 123 was detected on fluorescence channel 1 (FL1-H) at 530 nm. A minimum of 10,000 events were collected for each sample and the obtained results were analyzed using Summit software.

[9] = tested on: P-gp expression; assay: Flow cytometric analysis of P-gp expression; assay type: cell-based, human; conditions: 72 h; for Change in P-gp expression, DLD1 / Change in P-gp expression, NCI-H460: 5 µM 5, 200 nM 7, 100 nM 9, 10 nM TQ, 50 nM DOX, 50 nM PTX
Method: P-glycoprotein expression level in NCI-H460, NCI-H460/R, DLD1, and DLD1-TxR and cells was measured by flow cytometry. All cell lines were seeded in adherent 6-well plates and treated with Hsp90 inhibitors for 72 h at the following concentrations: 5 µM compound 5, 200 nM compound 7, 100 nM compound 9 (NCI-H460 and DLD1), and 10 µM compound 5, 500 nM compound 7, 500 nM compound 9 (NCI-H460/R and DLD1-TxR). Cells were also treated with 10 nM TQ, a non-competitive P-gp inhibitor, which served as a positive control. In addition, sensitive cells (NCI-H460 and DLD1) were treated with 50 nM DOX and 50 nM PTX that served as positive controls for the induction of P-gp expression. Then, cells were collected by trypsinization, washed with PBS, and directly immunostained by FITC-conjugated anti-P-gp antibody according to the manufacturer’s protocol. The samples were kept in the dark until the analysis on CyFlow Space Partec flow cytometer (Sysmex Partec GmbH, Görlitz, Germany). The fluorescence of FITC-conjugated anti-P-gp was detected on fluorescence channel 1 (FL1-H) at 530 nm. A minimum of 10,000 events were collected for each sample (the gate excluded cell debris and dead cells) and the obtained results were analyzed with Summit software v4.3 (Dako Colorado Inc., Fort Collins, CO, USA).

[10] = 10 µM 5, 500 nM 7, 500 nM 9, 10 nM TQ

| Structure (SMILES) | IC50 [1] [nM] | Efficacy in MDR NCI-H460/R cells compared with sensitive NCI-H460 [2] | IC50 [2] [nM] | IC50 [3] [nM] | Efficacy in MDR DLD1-TxR cells compared with sensitive DLD1 [4] | IC50 [4] [nM] | IC50 [5] [nM] | IC50 [6] [nM] | IC50 [7] [nM] | P-gp activity / Rho 123 accumulation [8] | Relative Selectivity [5] | Change in P-gp expression, DLD1 [9] | Change in P-gp expression, NCI-H460 [9] | Change in P-gp expression, DLD1-TxR [9, 10] | Change in P-gp expression, NCI-H460/R [9, 10] |
| --- | --- | --- | --- | --- | --- | --- | --- | --- | --- | --- | --- | --- | --- | --- | --- |
| O=C1c2ccccc2C(=O)c2c(-c3ccccn3)noc21 [Compound 10] | 1270 ± 14 | overcame resistance | 1375 ± 12 | 2640 ± 35 | collateral sensitivity | 1790 ± 36 | 257 ± 4 | ≥ 1000 | 1060 | reduction in activity |  |  |  |  |  |
| COc1ccc(-c2noc3c2C(=O)c2ccccc2C3=O)cc1 [Compound 4] | 935 ± 48 | remained higher than in the corresponding sensitive cells | 579 ± 18 | 1520 ± 54 | remained higher than in the corresponding sensitive cells | 1060 ± 25 | 1750 ± 83 |  | 5840 | did not have any positive effects | 1.71 |  |  |  |  |
| O=C1c2ccccc2C(=O)c2c(-c3cc[n+](Cc4ccccc4)cc3)noc21 [Compound 8] | 159 ± 3 | compromised in the presence of the MDR phenotype | 351 ± 5 | 251 ± 3 | compromised in the presence of the MDR phenotype | 3360 ± 49 | 11000 ± 366 | ≥ 1000 | 34 | detrimental; also recorded: modest activity | 10.69 |  |  |  |  |
| COc1cc2c(cc1OC)CN(CCc1ccc(NC(=O)c3cc(OC)c(OC)cc3NC(=O)c3cnc4ccccc4c3)cc1)CC2 [TQ, tariquidar] |  |  |  |  |  |  |  |  |  |  |  | increased P-gp expression | did not influence the P-gp expression | increased P-gp expression | did not influence the P-gp expression |
| O=C1c2ccccc2C(=O)c2c(-c3ccccc3)noc21 [Compound 3] | 785 ± 32 | better efficacy in cells with MDR phenotype | 599 ± 20 | 925 ± 32 | better efficacy in cells with MDR phenotype | 644 ± 20 | 636 ± 23 | < 1000 | 7850 | did not influence the P-gp activity |  |  |  |  |  |
| O=C1c2ccccc2C(=O)c2c(-c3ccc(OCCN4CCOCC4)cc3)noc21 [Compound 6] | 807 ± 35 | collateral sensitivity | 472 ± 18 | 439 ± 6 | evaded resistance | 439 ± 10 | 4740 ± 473 | < 1000 | 1200 | did not have any positive effects | 8.79 |  |  |  |  |
| CC(=O)O[C@H]1C(=O)[C@@]2(C)[C@H]([C@H](OC(=O)c3ccccc3)[C@]3(O)C[C@H](OC(=O)[C@H](O)[C@@H](NC(=O)c4ccccc4)c4ccccc4)C(C)=C1C3(C)C)[C@]1(OC(C)=O)CO[C@@H]1C[C@@H]2O [PTX, paclitaxel] |  |  |  |  |  |  |  |  |  |  |  | significantly increased P-gp expression | significantly increased P-gp expression |  |  |
| COc1cccc2c1C(=O)c1c(-c3ccncc3)noc1C2=O [Compound 13] | 1250 ± 28 | evaded resistance mechanisms | 1060 ± 12 | 1900 ± 36 | collateral sensitivity | 1000 ± 16 | 174 ± 4 | ≥ 1000 | 1900 | decreased |  |  |  |  |  |

Reference: publication PMC6770006, “Novel Heat Shock Protein 90 Inhibitors Suppress P-Glycoprotein Activity and Overcome Multidrug Resistance in Cancer Cells” (International Journal of Molecular Sciences, 2019)
